Laboratory results reported in patent US7348161B2, “Macrolide efflux genetic assembly” (Emory University, priority 2001, dated 2008).
In brackets after ≈: the same amount, converted by molar mass. Numbered stars: 1 amine (or outer) side, 2 acyl side, 3 side chain; on linkers, the order of the positions; unused ones are H or OH. Bridge positions count the residues as written; N and C are the ends. Square brackets hold non-standard residues; d marks the D form. Peptide text beside a SMILES is read from it. * marks the point of attachment. X1 = O=C1C[C@@H](C(=O)[*:2])N([*:1])C[C@H]1CS[C@@H]1CN2CCC1CC2; NMePhe(4-NMe2) = CN[C@@H](Cc1ccc(N(C)C)cc1)C(=O)O; Picolinoyl(3-OH) = O=C(c1ncccc1O)*; Phg = N[C@H](C(=O)O)c1ccccc1; dAbu = CC[C@@H](N)C(=O)O

Legend:
MefE = settings: proton motive function of MefE; refs [9,10]; cited from earlier work
[1] = system: pneumococci containing ermAM; settings: typical value; cited from earlier work
S. pneumoniae isolates = assay: Antimicrobial susceptibility (NCCLS guidelines) of invasive S. pneumoniae isolates; assay type: cell-based; settings: Streptococcus pneumoniae
[2] = system: invasive pneumococcal isolates; assay: Preliminary screening of 1998 invasive pneumococcal isolates for quinupristin resistance; assay type: cell-based, S. pneumoniae

Compound: N#CC(C#N)=NNc1cccc(Cl)c1 [carbonylcyanide-m-chlorophenylhydrazone]
- Effect on efflux of [14C]-erythromycin (MefE): decrease in the efflux

Compound: CC[C@H]1OC(=O)[C@H](C)[C@@H](O[C@H]2C[C@@](C)(OC)[C@@H](O)[C@H](C)O2)[C@H](C)[C@@H](O[C@@H]2O[C@H](C)C[C@H](N(C)C)[C@H]2O)[C@](C)(O)C[C@@H](C)C(=O)[C@H](C)[C@@H](O)[C@]1(C)O [erythromycin]
- Erythromycin MIC [1]: 64 µg/mL
- MIC (S. pneumoniae isolates; eighty-nine mefE-containing isolates, January 1994 to February 1996): ≥ 4 µg/mL
- MIC (S. pneumoniae isolates; subset of 336 erythromycin-resistant isolates, 1994-1996 and 1998): 4 µg/mL (≈ 5.45 µM)

Compound: CC[C@H]1NC(=O)[C@@H](NC(=O)c2ncccc2O)[C@@H](C)OC(=O)[C@H](c2ccccc2)NC(=O)[C@@H]2CC(=O)[C@H](CS[C@@H]3CN4CCC3CC4)CN2C(=O)[C@H](Cc2ccc(N(C)C)cc2)N(C)C(=O)[C@@H]2CCCN2C1=O [quinupristin] ({Picolinoyl(3-OH)}-T[dAbu]P[NMePhe(4-NMe2)][X1][Phg]; ester 1-C)
- Share of isolates resistant [2]: approximately half were resistant

Compound: arsenate
- Effect on efflux of [14C]-erythromycin (MefE): decrease in the efflux
